Experimental data reported in US9795656B2, “Treatment of ocular diseases” (MARLYN NUTRACEUTICALS INC, priority 2006, dated 2017).
Entries after “also recorded” stand apart in the source; their conditions may differ.

B1: Papain (protein, UniProt P00784 134-345, looked up)
Papain: IPEYVDWRQKGAVTPVKNQGSCGSCWAFSAVVTIEGIIKIRTGNLNEYSEQELLDCDRRSYGCNGGYPWSALQLVAQYGIHYRNTYPYEGVQRYCRSREKGPYAAKTDGVRQVQPYNEGALLYSIANQPVSVVLEAAGKDFQLYRGGIFVGPCGNKVDHAVAAVGYGPNYILIKNSWGTGWGENGYIRIKRGTGNSYGVCGLYTSSFYPVKN

Columns and labels:
HUVEC [1] = assay: MTT assay with treated HUVEC (antiproliferative activity); type: cell-based, Human; conditions: for inhibition of VEGF stimulated proliferation (MTT): VEGF stimulated HUVEC, FIG. 5; for inhibition of VEGF stimulated proliferation (MTT) / % growth (MTT) / antiproliferative effect (MTT), in words: 48 hours; for % growth (MTT): at concentrations as low as 25 μg/ml; for antiproliferative effect (MTT), in words: concentration-response
Procedure: The antiproliferative activity of bromelain, nattokinase and papain and their mixtures was assessed using an 3-(4,5-dimethylthiazol-2-yl)-2,5-diphenyltetrazoliumbromide (MTT) assay. […] Cells were incubated further 48 hours at 37° C./95% humidity. The MTT Assay was carried out using an EZ4U MTT Kit (Biomedica, Austria; according to the instructions of the manufacturer). Optical density was measured at 450 nm with a reference wavelength of 620 nm. Results are expressed as % proliferation with 100% being the proliferation of the VEGF treated control.
To assess a possible antiproliferative activity of Rutosid an 3-(4,5-dimethylthiazol-2-yl)-2,5-diphenyltetrazoliumbromide (MTT) Assay was used. […] Cells were incubated further 48 hours at 37° C./95% humidity. The MTT-Assay was carried out using a EZ4U MTT Kit (Biomedica, Austria) according to the instructions of the manufacturer) Optical density was measured at 450 nm with a reference wavelength of 620 nm. Results are expressed as % proliferation with 100% being the proliferation of the VEGF treated control.

HUVEC [2] = tested on: HUVEC
Procedure: (§1) The antiproliferative activity of bromelain, nattokinase and papain was assessed using a Lactate Dehydrogenase (LDH) Assay. Human Umbilical Vein Endothelial Cells (HUVEC) from semi-confluent cultures were harvested by treatment with trypsin, seeded at a density of 2500 cells/well into 96-well microplates, previously coated with human fibronectin. In oder to allow proper attachment, cells were incubated for 24 hours in Endothelial Basal medium 2MV (Cambrex Biochemicals) containing 10% Fetal Calf Serum, 60 μg/ml Endothelial cell Growth Supplement, hrEGF, hrFGF2, hrIGF, hrVEGF, Ascorbic Acid and Heparin. After attachment, cells were starved by incubation at 37° C./95% humidity in Medium 199+10% Fetal Calf Serum (FCS) without growth factors. After 24 hours, the supernatant was replaced by Medium 199 containing 10% FCS, VEGF and varying concentrations of the enzymes. After an incubation period of 48 hours, supernatant was harvested and an LDH assay was performed according to the instructions of the manufacturer (Promega, Germany): 50 μl aliquots from all wells were transferred to a fresh 96-well flat-bottom (enzymatic assay) plate. The Assay Buffer was added to the Substrate Mix and mixed gently. 50 μl of reconstituted Substrate Mix was added to each well. The plate was incubated for 30 minutes at room temperature. 50 μl of Stop Solution was added to each well. Within one hour, optical density was measured at 490 nm with a reference wavelength of 620 nm. Results are expressed as % untreated control.
(§2) To test a possible cytotoxic activity of rutosid an Lactate Dehydrogenase (LDH) Assay was used. Human Umbilical Vein Endothelial Cells (HUVEC) from semi-confluent cultures were harvested by treatment with trypsin, seeded at a density of 2500 cells/well into 96-well microplates, previously coated with human fibronectin. In oder to allow proper attachment, cells were incubated for 24 hours in Endothelial Basal medium 2MV (Cambrex Biochemicals) containing 10% Fetal Calf Serum, 60 μg/ml Endothelial cell Growth Supplement, hrEGF, hrFGF-2, hrIGF, hrVEGF, ascorbic acid and heparin. After attachment, cells were starved by incubation at 37° C./95% humidity in Medium 199+10% Fetal Calf Serum (FCS) without growth factors. After 24 hours, the supernatant was replaced by Medium 199 containing 10% FCS, VEGF and varying concentrations of the enzymes. After an incubation period of 48 hours, supernatant was harvested and an LDH assay was performed according to the instructions of the manufacturer (Promega, Germany): 50 μl aliquots from all wells where transferred to a fresh 96-well flat-bottom (enzymatic assay) plate. […] Within one hour, optical density was measured at 490 nm with a reference wavelength of 620 nm. Results are expressed as % untreated control.

HUVEC [3] = assay: Tube formation assay on Matrigel (antiangiogenic activity); type: cell-based, Human; conditions: for inhibition of VEGF induced tube formation: FIG. 3, FIG. 7 right; for inhibition of spontaneous tube formation: no VEGF, FIG. 7 left; for ability to inhibit or prevent angiogenesis: general statement on proteases of mammalian origin
Procedure: Methods: Antiangiogenic activity was assessed using a tube formation assay. Growth factor reduced Matrigel (Becton Dickinson, Vienna) was thawed at a temperature of 4° C. 50 μl per well were pipetted into the wells of a 96 well microtiter plate. The plate was left at 4° C. for 24 hours. Prior to the experiment, the plate was incubated for 30-60 minutes at 37° C. to solidify the gel. HUVEC were harvested by treatment with trypsin and seeded into Matrigel coated 96 well microplates at a density of 20.000 cells per well in Endothelial Growth Medium 2(MV) (Lonza, Brussels) supplemented with ascorbic acid and hydrocortisone according to the instructions of the manufacturer as well as […] heparin and 1% Fetal Bovine Serum. Drugs and VEGF were added to the desired concentrations. After further 16 hrs to 18, wells were photographed. The total length of tubes was determined using the ImageJ Software, measured by the Neuron Length Determination Plugin.

HUVEC [4] = assay: LDH release into supernatant of treated HUVEC (toxicity test); conditions: up to a level of including 25 μg/ml; 2 days of incubation
Procedure: as §1, §2

Molecule | antiproliferative effect (MTT), in words (HUVEC [1]) | inhibition of VEGF induced tube formation (HUVEC [3]) | inhibition of spontaneous tube formation (HUVEC [3]) | toxic effects on HUVEC (LDH release) (HUVEC [4]) | further results
C[C@@H]1O[C@@H](OC[C@H]2O[C@@H](Oc3c(-c4ccc(O)c(O)c4)oc4cc(O)cc(O)c4c3=O)[C@H](O)[C@@H](O)[C@@H]2O)[C@H](O)[C@H](O)[C@H]1O [Rutosid] | – | – | – | – | inhibition of VEGF stimulated proliferation (MTT) (HUVEC [1]): No inhibition of proliferation; inhibition of VEGF stimulated proliferation (MTT) (HUVEC [1]; listed as rutosid): does not inhibit; toxicity in HUVEC (LDH), overall (HUVEC [2]): negligible
Bromelain | clear antiproliferative effect | inhibited formation of tubes almost to the same extend as in untreated HUVEC | inhibited formation of tubes | did not show toxic effects | % growth (MTT) (HUVEC [1]; 100% = VEGF treated control): 75%; inhibition of VEGF induced tube formation (HUVEC [3]; listed as bromelain): significant decrease
Nattokinase | clear antiproliferative effect | significant decrease; also recorded: inhibited formation of tubes almost to the same extend as in untreated HUVEC | inhibited formation of tubes | did not show toxic effects | –
chymotrypsin [reference compound] | – | but not chymotrypsin or trypsin inhibited formation of tubes | but not chymotrypsin or trypsin inhibited formation of tubes | – | ability to inhibit or prevent angiogenesis (HUVEC [3]): not able to inhibit or prevent angiogenesis
ficin | – | significant decrease; also recorded: inhibited formation of tubes almost to the same extend as in untreated HUVEC | inhibited formation of tubes | – | –
serrapeptase | – | significant decrease; also recorded: inhibited formation of tubes almost to the same extend as in untreated HUVEC | inhibited formation of tubes | – | –
trypsin [reference compound] | – | but not chymotrypsin or trypsin inhibited formation of tubes | but not chymotrypsin or trypsin inhibited formation of tubes | – | ability to inhibit or prevent angiogenesis (HUVEC [3]): not able to inhibit or prevent angiogenesis
B1 | clear antiproliferative effect | significant decrease; also recorded: inhibited formation of tubes almost to the same extend as in untreated HUVEC | inhibited formation of tubes | did not show toxic effects | % growth (MTT) (HUVEC [1]; 100% = VEGF treated control): 75%; % Proliferation (HUVEC [1]; combinations of bromelain, nattokinase and papain in presence of VEGF, 100% = VEGF treated control): 75.45%; % tube formation (HUVEC [3]; in presence of VEGF, 100% = samples treated with VEGF only): 60.14%
